target: T1, His-PKC-theta (Homo sapiens, UniProt Q04759); test: PKC-theta Assay (384-well time resolved fluorescence, IMAP TR-FRET); format: biochemical; conditions: Table 2; read-out: Act. Level (IC50 in the PKC-theta Assay)
T1 construct: His; purchased Invitrogen
Summary of the method: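 Fam-labeled S6-derived peptide (200 nM) and 10 μM ATP were reacted with 142 pM enzyme for 2 h at room temperature in HEPES pH 7.6 buffer with MgCl2, DTT, Triton X-100, BSA and EDTA. The reaction was stopped with IMAP progressive binding reagent plus Tb donor, incubated overnight, then TR-FRET read.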

T1 sequence (Q04759 whole entry): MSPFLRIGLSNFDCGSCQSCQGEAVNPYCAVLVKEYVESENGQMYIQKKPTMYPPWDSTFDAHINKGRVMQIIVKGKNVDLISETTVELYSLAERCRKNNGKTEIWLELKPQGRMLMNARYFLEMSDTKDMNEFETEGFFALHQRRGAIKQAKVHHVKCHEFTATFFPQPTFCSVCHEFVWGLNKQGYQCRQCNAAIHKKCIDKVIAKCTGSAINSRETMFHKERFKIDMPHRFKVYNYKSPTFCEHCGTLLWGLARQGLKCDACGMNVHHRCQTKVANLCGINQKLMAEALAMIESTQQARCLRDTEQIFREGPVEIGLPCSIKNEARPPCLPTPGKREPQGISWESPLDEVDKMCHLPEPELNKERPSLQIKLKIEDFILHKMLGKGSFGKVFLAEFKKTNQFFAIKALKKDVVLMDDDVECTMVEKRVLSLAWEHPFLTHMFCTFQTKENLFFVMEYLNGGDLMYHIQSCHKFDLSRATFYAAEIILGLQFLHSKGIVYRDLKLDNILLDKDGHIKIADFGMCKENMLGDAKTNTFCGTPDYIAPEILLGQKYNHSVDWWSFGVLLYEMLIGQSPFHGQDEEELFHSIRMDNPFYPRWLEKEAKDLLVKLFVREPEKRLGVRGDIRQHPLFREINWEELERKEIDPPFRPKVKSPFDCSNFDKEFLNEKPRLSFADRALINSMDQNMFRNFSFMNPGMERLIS

Compound | IC50 [µM]
CC1(C)[C@@H](O)C[C@H]1Nc1nc(NCCc2ccc(C#N)c(OC(F)(F)F)c2)ncc1C#N [Cmpd 143] | 0.8 to 2
CC1(C)C[C@H](Nc2nc(NCCc3ccc(Cl)cc3)ncc2C#N)CC[C@@H]1O [Cmpd 33] | 0.1 to 0.8
CC1(C)C[C@H](Nc2nc(NCCc3cccc(Cl)c3)ncc2C#N)CC[C@@H]1O [Cmpd 32] | < 0.1
CC1(C)C[C@@H](O)CC[C@@H]1Nc1nc(NCCc2cccc(Cl)c2)ncc1C#N [Cmpd 187] | 2 to 10
Cc1ccccc1CNc1ncc(C#N)c(N[C@H]2CC[C@@H](O)CC2)n1 [Cmpd 19] | 2 to 10
CNC(=O)c1cccc(CCNc2ncc(C#N)c(N[C@@H]3CC[C@H](O)C(C)(C)C3)n2)c1 [Cmpd 131] | 0.8 to 2
CC(C)(CO)Nc1nc(NCc2cnccc2C(F)(F)F)ncc1C#N [Cmpd 15] | 0.1 to 0.8
COc1cc(CCNc2ncc(C#N)c(N[C@@H]3CC[C@H](O)C(C)(C)C3)n2)ccc1C#N [Cmpd 137] | 0.1 to 0.8
C[C@@H](CNc1ncc(C#N)c(N[C@@H]2C[C@H](O)C2(C)C)n1)c1ccccc1 [Cmpd 41] | 0.8 to 2
N#Cc1cnc(NCCc2ccc(F)cc2)nc1N[C@H]1CC[C@@H](C(N)=O)CC1 [Cmpd 91] | 0.1 to 0.8
CC1(C)[C@@H](C(N)=O)C[C@H]1Nc1nc(NCCc2cccc(Cl)c2)ncc1C#N [Cmpd 165] | < 0.1
Cc1nnnn1-c1ccccc1CCNc1ncc(C#N)c(N[C@@H]2CC[C@H](O)C(C)(C)C2)n1 [Cmpd 168] | 2 to 10
CC1(C)C[C@H](Nc2nc(NCCc3ccc(C(=O)O)cc3)ncc2C#N)CC[C@@H]1O [Cmpd 153] | 0.8 to 2
CC1(C)[C@@H](O)C[C@H]1Nc1nc(NCCc2ccccc2OC(F)F)ncc1C#N [Cmpd 136] | 0.1 to 0.8
CC1(C)C[C@H](Nc2nc(NCCc3ccc(C#N)c(OC(F)(F)F)c3)ncc2C#N)CC[C@@H]1O [Cmpd 144] | 0.8 to 2
CC1(C)[C@@H](C(N)=O)C[C@H]1Nc1nc(NCCc2ccc(C#N)cc2)ncc1C#N [Cmpd 194] | 0.1 to 0.8
COc1ccc(CCNc2ncc(C#N)c(N[C@@H]3CC[C@H](O)C(C)(C)C3)n2)cc1 [Cmpd 94] | 0.1 to 0.8
CC1(C)C[C@H](Nc2nc(NCCc3cccc(F)c3)ncc2C#N)CC[C@@H]1O [Cmpd 196] | < 0.1
N#Cc1cnc(NCCc2cccc(Cl)c2)nc1N[C@H]1CC[C@H](O)CC1 [Cmpd 69] | 0.8 to 2

Compound | IC50 [µM]
CC(F)(F)COc1ccc(CCNc2ncc(C#N)c(N[C@@H]3CC[C@H](O)C(C)(C)C3)n2)cc1 [Cmpd 151] | < 0.1
CC(C)Oc1ccccc1CNc1ncc(C#N)c(N[C@H]2CC[C@@H](O)CC2)n1 [Cmpd 5] | 0.1 to 0.8
CC1(C)[C@@H](CO)C[C@H]1Nc1nc(NCCc2cccc(Cl)c2)ncc1C#N [Cmpd 74] | < 0.1
CC1(C)[C@@H](O)C[C@H]1Nc1nc(NCCc2ccccc2O)ncc1C#N [Cmpd 108] | 0.8 to 2
CC1(C)[C@H](N)C[C@@H]1Nc1nc(NCCc2cccc(Cl)c2)ncc1C#N [Cmpd 159] | < 0.1
CC1(C)[C@@H](O)C[C@H]1Nc1nc(NCCc2ccc(N3CCCCC3)cc2)ncc1C#N [Cmpd 114] | 0.8 to 2
CC1(C)C[C@H](Nc2nc(NCCc3ccc(S(=O)(=O)N4CCOCC4)cc3)ncc2C#N)CC[C@@H]1O [Cmpd 177] | 0.1 to 0.8
COc1cc(CCNc2ncc(C#N)c(N[C@@H]3C[C@H](O)C3(C)C)n2)ccc1O [Cmpd 104] | 2 to 10
CC1(C)C[C@H](Nc2nc(NCCc3ccc(O)cc3)ncc2C#N)CC[C@@H]1O [Cmpd 29] | < 0.1
CC1(C)C[C@H](Nc2nc(NCCc3ccc(S(=O)(=O)N4CCC4)cc3)ncc2C#N)CC[C@@H]1O [Cmpd 176] | 0.1 to 0.8
CC1(C)C[C@H](Nc2nc(NCCc3cc(Cl)ccc3F)ncc2C#N)CC[C@@H]1O [Cmpd 89] | < 0.1
N#Cc1cnc(NCc2cc(F)ccc2C(F)(F)F)nc1N[C@H]1CC[C@@H](O)CC1 [Cmpd 3] | < 0.1
COCCOc1ccc(CCNc2ncc(C#N)c(N[C@@H]3CC[C@H](O)C(C)(C)C3)n2)cc1 [Cmpd 62] | 0.1 to 0.8
CC(O)(CNc1ncc(C#N)c(N[C@@H]2CC[C@H](O)C(C)(C)C2)n1)c1ccccc1 (stereo partly drawn) [Cmpd 56] | 0.8 to 2
Cc1ccc(CCNc2ncc(C#N)c(N[C@@H]3CC[C@H](O)C(C)(C)C3)n2)cc1C [Cmpd 35] | < 0.1
N#Cc1ccc(CCNc2ncc(C#N)c(N[C@H]3C[C@@H](C(N)=O)C3)n2)cc1 [Cmpd 192] | 2 to 10
N#Cc1cnc(NCc2ccccc2OC(F)(F)F)nc1N[C@H]1CC[C@@H](O)CC1 [Cmpd 17] | 0.8 to 2
COc1ccccc1CCNc1ncc(C#N)c(N[C@@H]2CC[C@H](O)C(C)(C)C2)n1 [Cmpd 30] | 0.1 to 0.8

same assay, conditions: read-out: Act. Level (IC50 in the PKC-theta Assay)

Compound | IC50 [µM]
C[C@@H]1CC[C@H](Nc2nc(NCc3cnccc3C(F)(F)F)ncc2C(F)(F)F)C[C@H]1O [Cmpd 63] | < 0.1
CC1(C)C(O)C(C)(C)C1Nc1nc(NCc2cnccc2C(F)(F)F)ncc1C#N (stereo not drawn) [Cmpd 130] | 0.1 to 0.8
CC1(C)[C@H](O)C[C@H]1Nc1nc(NCc2cnccc2C(F)(F)F)ncc1C(F)(F)F [Cmpd 33] | < 0.1
CC1(C)[C@@H](O)C[C@H]1Nc1nc(NCc2cncnc2-c2ccc(F)cc2)ncc1C(F)(F)F [Cmpd 70] | < 0.1
CC(C)(O)[C@H]1CC[C@H](Nc2nc(NCc3cnccc3C(F)(F)F)ncc2C#N)CC1 [Cmpd 101] | 0.1 to 0.8
CC(F)(F)COc1ncncc1CNc1ncc(C#N)c(N[C@H]2CC[C@@H](O)CC2)n1 [Cmpd 153] | < 0.1
Cc1ccc(CCNc2ncc(C#N)c(N[C@@H]3CC[C@H](O)C(C)(C)C3)n2)cn1 [Cmpd 197] | 0.8 to 2
Cc1ccc(Oc2ncncc2CNc2ncc(C#N)c(N[C@H]3CC[C@@H](O)CC3)n2)cc1 [Cmpd 26] | < 0.1
COc1ncncc1CNc1ncc(C(F)(F)F)c(N[C@@H]2C[C@H](O)C2(C)C)n1 [Cmpd 62] | < 0.1
CC1(C)[C@@H](O)C[C@H]1Nc1nc(NCCc2ccncc2)ncc1C#N [Cmpd 186] | 0.8 to 2
COc1cccc2c(CCNc3ncc(C#N)c(N[C@@H]4CC[C@H](O)C(C)(C)C4)n3)c[nH]c12 [Cmpd 177] | 0.1 to 0.8
CC1(C)C(O)C[C@@H]1Nc1nc(NCc2cncnc2OCCC(F)(F)F)ncc1C(F)(F)F (stereo partly drawn) [Cmpd 85] | < 0.1
N#Cc1cnc(NCCc2ncccc2C(F)(F)F)nc1N[C@H]1CC[C@@H](O)CC1 [Cmpd 151] | 2 to 10
Cc1cnccc1CCNc1ncc(C#N)c(N[C@H]2CC[C@@H](O)CC2)n1 [Cmpd 152] | 2 to 10
CCc1ncncc1CNc1ncc(C#N)c(N[C@@H]2C[C@H](O)C2(C)C)n1 [Cmpd 67] | < 0.1
CC1(C)C[C@H](Nc2nc(NCc3cncnc3OCCC(F)(F)F)ncc2C(F)(F)F)CC[C@@H]1O [Cmpd 8] | < 0.1
CC(C)(F)c1ncncc1CNc1ncc(C#N)c(N[C@@H]2CC[C@H](O)C(C)(C)C2)n1 [Cmpd 10] | < 0.1
CC(C)c1ncncc1CNc1ncc(C(F)(F)F)c(N[C@@H]2C[C@H](O)C2(C)C)n1 [Cmpd 20] | < 0.1
CC(F)(F)COc1ncncc1CNc1ncc(C(F)(F)F)c(N[C@@H]2CC[C@H](O)C(C)(C)C2)n1 [Cmpd 29] | < 0.1
N#Cc1cnc(NCCC2C(=O)Nc3ccccc32)nc1N[C@H]1CC[C@@H](C(N)=O)CC1 (stereo partly drawn) [Cmpd 179] | < 0.1
N#Cc1ccc2[nH]cc(CCNc3ncc(C#N)c(N[C@H]4CC[C@@H](O)CC4)n3)c2c1 [Cmpd 163] | 2 to 10

Compound | IC50 [µM]
CC(F)(F)COc1ncncc1CNc1ncc(C#N)c(N[C@H]2C[C@H](O)C2(C)C)n1 [Cmpd 121] | 0.1 to 0.8
CC1(C)C[C@H](Nc2nc(NCc3c[n+]([O-])ccc3C(F)(F)F)ncc2C#N)CC[C@@H]1O [Cmpd 42] | < 0.1
CC1(C)C[C@H](Nc2nc(NCc3cnccc3C(F)(F)F)ncc2C(F)(F)F)CC[C@@H]1O [Cmpd 18] | < 0.1
CCc1ncncc1CNc1ncc(C#N)c(N[C@H]2C[C@H](O)C2(C)C)n1 [Cmpd 142] | 0.8 to 2
CC1(C)[C@@H](CO)C[C@H]1Nc1nc(NCc2cnccc2C(F)(F)F)ncc1C(F)(F)F [Cmpd 32] | < 0.1
CC1(C)[C@@H](CO)C[C@H]1Nc1nc(NCc2c[n+]([O-])ccc2C(F)(F)F)ncc1C(F)(F)F [Cmpd 48] | < 0.1
CC1(C)C[C@H](Nc2nc(NCCc3c[nH]c4cc(Cl)ccc34)ncc2C#N)CC[C@@H]1O [Cmpd 173] | 0.1 to 0.8
CC1(C)C[C@H](Nc2nc(NCCC3C(=O)Nc4ccccc43)ncc2C#N)CC[C@H]1O (stereo partly drawn) [Cmpd 158] | 0.1 to 0.8
CC(F)(F)c1ncncc1CNc1ncc(C#N)c(N[C@@H]2CC[C@H](O)C(C)(C)C2)n1 [Cmpd 36] | < 0.1
CC(F)(F)COc1ncncc1CNc1ncc(C#N)c(N[C@H]2CC[C@@](C)(C(N)=O)CC2)n1 [Cmpd 160] | < 0.1
O[C@H]1CC[C@@H](Nc2nc(NCc3cnccc3C(F)(F)F)ncc2C(F)(F)F)CC1 [Cmpd 69] | < 0.1
CC1(C)C[C@H](Nc2nc(NCc3cncnc3-c3ccc(F)cc3)ncc2C(F)(F)F)CC[C@@H]1O [Cmpd 44] | < 0.1
CC(C)(F)c1ncncc1CNc1ncc(C#N)c(N[C@H]2C[C@@H](CO)C2(C)C)n1 [Cmpd 109] | 0.1 to 0.8
C[C@]1(O)CC[C@@H](Nc2nc(NCc3cncnc3-c3ccc(F)cc3)ncc2C#N)CC1 [Cmpd 86] | < 0.1
CC1(C)[C@H](O)C[C@@H]1Nc1nc(NCc2cncnc2-c2ccc(F)cc2)ncc1C(F)(F)F [Cmpd 97] | 0.1 to 0.8
CC1(C)[C@H](O)C[C@H]1Nc1nc(NCc2cncnc2OCCC(F)(F)F)ncc1C(F)(F)F [Cmpd 125] | < 0.1
N#Cc1cnc(NCCc2c[nH]c3cc(F)ccc23)nc1N[C@H]1CC[C@@H](O)CC1 [Cmpd 165] | 0.8 to 2
CCc1ncncc1CNc1ncc(C#N)c(NC2CC(C)(O)C2(C)C)n1 (stereo not drawn) [Cmpd 65] | < 0.1
Cc1nc(CCNc2ncc(C#N)c(N[C@@H]3CC[C@H](O)C(C)(C)C3)n2)no1 [Cmpd 195] | 2 to 10
CC1(C)[C@H](CO)C[C@@H]1Nc1nc(NCc2c[n+]([O-])ccc2C(F)(F)F)ncc1C#N [Cmpd 145] | 0.8 to 2
